Data as given in PubChem BioAssay AID2197 (Vanderbilt High Throughput Screening Facility, 2009).
Active and inactive are the calls of the source. The rule behind the calls is not given here.

Each compound was assayed against Metabotropic glutamate receptor 4 (Homo sapiens) (UniProt Q14833) (assay: PubChem AID 2197). Conditions: CHO hmGluR4/Gqi5 calcium mobilization, PAM potency.
Sequence of Metabotropic glutamate receptor 4 (Homo sapiens) (Q14833 whole entry, looked up): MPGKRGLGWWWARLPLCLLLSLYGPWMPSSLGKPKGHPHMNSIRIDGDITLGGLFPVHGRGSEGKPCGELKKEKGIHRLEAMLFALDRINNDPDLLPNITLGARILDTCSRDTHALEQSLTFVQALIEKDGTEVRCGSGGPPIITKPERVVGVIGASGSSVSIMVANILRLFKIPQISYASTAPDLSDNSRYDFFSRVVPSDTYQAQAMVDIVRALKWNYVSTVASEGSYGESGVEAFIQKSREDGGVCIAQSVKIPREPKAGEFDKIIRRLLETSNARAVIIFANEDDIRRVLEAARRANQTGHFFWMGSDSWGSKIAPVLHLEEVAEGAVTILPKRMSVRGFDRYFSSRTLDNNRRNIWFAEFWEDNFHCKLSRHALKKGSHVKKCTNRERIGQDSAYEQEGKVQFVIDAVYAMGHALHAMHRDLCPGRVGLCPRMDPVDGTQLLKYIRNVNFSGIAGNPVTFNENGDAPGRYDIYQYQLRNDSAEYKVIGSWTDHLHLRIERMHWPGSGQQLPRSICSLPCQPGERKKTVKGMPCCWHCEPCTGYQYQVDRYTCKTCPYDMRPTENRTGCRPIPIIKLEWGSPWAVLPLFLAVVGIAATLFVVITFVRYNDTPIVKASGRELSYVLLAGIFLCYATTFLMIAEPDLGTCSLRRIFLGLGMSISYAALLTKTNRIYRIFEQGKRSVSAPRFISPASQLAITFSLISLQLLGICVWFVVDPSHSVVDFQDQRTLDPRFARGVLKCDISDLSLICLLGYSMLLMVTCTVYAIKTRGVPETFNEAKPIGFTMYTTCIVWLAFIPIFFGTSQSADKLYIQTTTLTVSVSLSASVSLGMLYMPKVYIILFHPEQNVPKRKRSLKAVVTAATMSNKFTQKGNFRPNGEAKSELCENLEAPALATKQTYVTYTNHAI
In the case of `O=C(Nc1ccc(F)c(C(F)(F)F)c1)c1ccccn1`, the EC50 is reported as 1530 nM. `COc1cc(NC(=O)c2ccccn2)ccc1C` was tested, and the EC50 was 562 nM. In the case of `O=C(Nc1ccc(Cl)c(Cl)c1)c1ccccn1`, the EC50 is reported as 1370 nM. `O=C(Nc1ccc(Cl)c(C(F)(F)F)c1)c1ccccn1` was tested, and the EC50 was 2050 nM. `COc1ccc(NC(=O)c2ccccn2)cc1Cl` was tested, and the EC50 was 1050 nM. With `O=C(Nc1cccc(Cl)c1)c1ccccn1` the EC50 was 1090 nM. In the case of `COc1cc(NC(=O)c2ccccn2)ccc1F`, the EC50 is reported as 776 nM. `O=C(Nc1ccc(Cl)c(Cl)c1)c1ccncn1` gave an EC50 of 2840 nM.

Same assay, conditions: CHO hmGluR4/Gqi5 calcium mobilization, PAM potency; at 30.1 µM (top of the series)
`O=C(Nc1cccc(C(F)(F)F)n1)c1ccccn1` was tested, and the “% glutamate max response” value was “inactive”. `COc1cc(NC(=O)c2ccccn2)ncn1` was tested, and the “% glutamate max response” value was “inactive”. With `O=C(Nc1ccc(N2CCCS2(=O)=O)cc1)c1ccccn1` the “% glutamate max response” value was “inactive”.
